PubChem BioAssay (NCI)
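Grown in 96-well plates, cells were treated for 48 hours with each compound at five concentrations. Insufficient inhibition: endpoint recorded as highest concentration tested. TGI: concentration producing complete growth inhibition.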 Where a SMILES comes first, the peptide text is derived from it. [ ]: non-standard residue; d: D form. The star is where a group is joined. ξ: configuration not given here. ξF = NC(Cc1ccccc1)C(=O)O; Cbz = O=C(OCc1ccccc1)*; Aib = CC(C)(N)C(=O)O

Tests used:
Assay in all cases: NCI anticancer screen, dose series, 48 h
CCRF-CEM leukemia = test system: CCRF-CEM leukemia
A549 NSCLC = test system: A549 NSCLC
NCI-H522 lung = test system: NCI-H522 lung
MCF7 breast = test system: MCF7 breast
HL-60(TB) leukemia = test system: HL-60(TB) leukemia
OVCAR-5 ovarian = test system: OVCAR-5 ovarian
COLO 205 colon = test system: COLO 205 colon
OVCAR-8 ovarian = test system: OVCAR-8 ovarian
OVCAR-3 ovarian = test system: OVCAR-3 ovarian
PC-3 prostate = test system: PC-3 prostate
SR leukemia = test system: SR leukemia
HCT-116 colon = test system: HCT-116 colon
HT29 colon = test system: HT29 colon
SW-620 colon = test system: SW-620 colon
A498 renal = test system: A498 renal
SF-295 CNS = test system: SF-295 CNS
OVCAR-4 ovarian = test system: OVCAR-4 ovarian
RPMI-8226 leukemia = test system: RPMI-8226 leukemia
SK-MEL-28 melanoma = test system: SK-MEL-28 melanoma
LOX IMVI melanoma = test system: LOX IMVI melanoma
K-562 leukemia = test system: K-562 leukemia
T-47D breast = test system: T-47D breast
SNB-19 CNS = test system: SNB-19 CNS
DU-145 prostate = test system: DU-145 prostate
M14 melanoma = test system: M14 melanoma
TK-10 renal = test system: TK-10 renal
HCC-2998 colon = test system: HCC-2998 colon
MDA-MB-231 breast = test system: MDA-MB-231 breast
NCI/ADR-RES ovarian = test system: NCI/ADR-RES ovarian
MALME-3M melanoma = test system: MALME-3M melanoma
EKVX NSCLC = test system: EKVX NSCLC
SK-MEL-5 melanoma = test system: SK-MEL-5 melanoma
CAKI-1 renal = test system: CAKI-1 renal
MDA-MB-435 = test system: MDA-MB-435
SF-268 CNS = test system: SF-268 CNS
HOP-62 NSCLC = test system: HOP-62 NSCLC
HCT-15 colon = test system: HCT-15 colon
MOLT-4 leukemia = test system: MOLT-4 leukemia
ACHN renal = test system: ACHN renal
UACC-257 melanoma = test system: UACC-257 melanoma
UO-31 renal = test system: UO-31 renal
MDA-N = test system: MDA-N
HOP-92 NSCLC = test system: HOP-92 NSCLC
UACC-62 melanoma = test system: UACC-62 melanoma
IGROV1 ovarian = test system: IGROV1 ovarian
U251 CNS = test system: U251 CNS

## CCOC(=O)CNC(=O)C(Cc1ccccc1)NC(=O)C(C)(C)NC(=O)OCc1ccccc1 (stereo unspecified) (Cbz-[Aib]-[ξF]-Gly-OEt)
CCRF-CEM leukemia
  TGI: > 100 µM
A549 NSCLC
  TGI: > 100 µM
NCI-H522 lung
  TGI: > 100 µM
MCF7 breast
  TGI: > 100 µM
HL-60(TB) leukemia
  TGI: > 100 µM
OVCAR-5 ovarian
  TGI: > 100 µM
COLO 205 colon
  TGI: > 100 µM
OVCAR-8 ovarian
  TGI: > 100 µM
OVCAR-3 ovarian
  TGI: 78.2 µM
PC-3 prostate
  TGI: > 100 µM
SR leukemia
  TGI: > 100 µM
HCT-116 colon
  TGI: > 100 µM
HT29 colon
  TGI: > 100 µM
SW-620 colon
  TGI: > 100 µM
A498 renal
  TGI: > 100 µM
SF-295 CNS
  TGI: > 100 µM
OVCAR-4 ovarian
  TGI: > 100 µM
RPMI-8226 leukemia
  TGI: > 100 µM
SK-MEL-28 melanoma
  TGI: 33.2 µM
LOX IMVI melanoma
  TGI: > 100 µM
K-562 leukemia
  TGI: > 100 µM
T-47D breast
  TGI: > 100 µM
SNB-19 CNS
  TGI: > 100 µM
DU-145 prostate
  TGI: > 100 µM
M14 melanoma
  TGI: > 100 µM
TK-10 renal
  TGI: > 100 µM
HCC-2998 colon
  TGI: > 100 µM
MDA-MB-231 breast
  TGI: > 100 µM
NCI/ADR-RES ovarian
  TGI: > 100 µM
MALME-3M melanoma
  TGI: 36.2 µM
EKVX NSCLC
  TGI: > 100 µM
SK-MEL-5 melanoma
  TGI: > 100 µM
CAKI-1 renal
  TGI: > 100 µM
MDA-MB-435
  TGI: > 100 µM
SF-268 CNS
  TGI: > 100 µM
HOP-62 NSCLC
  TGI: > 100 µM
HCT-15 colon
  TGI: > 100 µM
MOLT-4 leukemia
  TGI: > 100 µM
ACHN renal
  TGI: > 100 µM
UACC-257 melanoma
  TGI: > 100 µM
UO-31 renal
  TGI: > 100 µM
MDA-N
  TGI: > 100 µM
HOP-92 NSCLC
  TGI: > 100 µM
UACC-62 melanoma
  TGI: 40.9 µM
IGROV1 ovarian
  TGI: > 100 µM
U251 CNS
  TGI: > 100 µM
